Data: patent publication US8414760B2, “Biosensor electrode mediators for regeneration of cofactors” (priority 1997, dated 2013)

Experiments:
[1] = tested on: D-3-Hydroxybutyrate dehydrogenase (HBDH); experiment: Assessment of mediator inhibition of D-3-hydroxybutyrate dehydrogenase (assay rate before and after filtration); assay type: biochemical, Pseudomonas sp.; set-up: Residual enzyme activity after filtration (percentage of the original activity): concentration or dose not given beside the values; settings: for Assay Rate before filtration: 50 U/ml HBDH with mediator in Tris buffer pH 8.2, incubated 0.5 hours at 37.5 C, NADH at 340 nm, measure of efficiency as oxidant of NADH; for Assay Rate after filtration: enzyme reisolated from the mediator solution by filtration (30,000 cut-off), redissolved in Tris buffer; for Residual enzyme activity after filtration (percentage of the original activity): compared with control (no mediator)
Procedure: D-3-Hydroxybutyrate dehydrogenase (HBDH; EC 1.1.1.30) from Pseudomonas sp. was purchased from Toyobo Co., Ltd. p-Nicotinamide adenine dinucleotide (NAD^+) and D,L-3-hydroxybutyric acid were supplied by Boehringer Mannheim.
A series of 18 solutions (2.5 ml each) were prepared, each containing 50 U/ml HBDH and 1.29 or 2.58 mg of the following NAD(P)H mediators: MB(3), 4-Me-BQ(4), 1-Me0-PMS (5), DCIP(6), 1,10-PQ(7), 1,7-PQ(8), 2,9-Me2-1,10-PQ(10), 1-Me-1,10-PQ^+ (11), and [Ru(bpy)2(1,10-PQ)](PF6)2 (12) in Tris buffer (50 mM, pH 8.2). A control solution was also prepared, containing enzyme but no mediator. The solutions were incubated for 0.5 hours at 37.5 C, then assayed (in triplicate) for NADH at 340 nm, using a Sigma Diagnostics D-3-hydroxybutyrate kit. The extent of the interference of the added mediator with the assay rate compared to the control afforded a quantitative measure of the mediator's efficiency as an oxidant of NADH.
The enzyme was then reisolated from the mediator solutions by filtration through a polysulfone membrane (nominal molecular weight cut-off: 30,000) in a microcentrifuge filter (Millipore). The enzyme remaining on the filter was dissolved in Tris buffer (0.2 ml), and the resulting solution was assayed (in triplicate) with the Sigma kit. By comparing the results of the assays before and after filtration, the effect of any covalently and/or irreversibly bound mediator on the enzyme activity could be determined.

[2] = Evaluation of mediators as NADH mediators in dry strips (screen-printed electrodes, NADH dose response)
Procedure: Screen-printed electrodes incorporating 1,10-PQ and MB were produced from an organic carbon ink containing these NAD(P)H mediators at a level of 3.5 mg/g ink. The solid mediators were mixed into a commercial conducting carbon ink (Gwent Electronic Materials).
The dose response curve for the electrodes containing 1,10-PQ tested with aqueous NADH solutions (0-16.7 mM) in PBS at a poise potential of +400 mV versus a printed Ag/AgCl reference electrode is shown in FIG. 3. A slope of 0.58 nA mM^−1 NADH was recorded. The dose response curve for the electrodes containing MB tested with aqueous NADH solutions (0-12.4 mM) at a poise potential of +100 mV versus a printed Ag/AgCl reference electrode is shown in FIG. 4. An increased slope of 8.48 μA mM^−1 NADH was observed.

[3] = Dry strips containing HBDH and NAD+: response to D-3-hydroxybutyrate after storage
Procedure: Screen-printed electrodes were produced from an aqueous carbon ink incorporating 1,10-PQ or MB at a level of 2.4 or 4.3 mg/g ink, respectively, together with the enzyme HBDH (120 units/g ink) and NAD^+ (110 mg/g ink). The ink also contained a polysaccharide binder.
The electrodes were tested after 4, 14, and 26 weeks of storage (30° C., desiccated) with aqueous D-3-hydroxybutyrate solutions (0-25 mM) in PBS at a poise potential of +400 mV versus a printed Ag/AgCl reference electrode. All three dose responses were non-linear and levelled out with a current of 8.5 μA being recorded at 24 mM D-3-hydroxybutyrate.
The electrodes were tested after 2 and 14 weeks storage (30° C., desiccated) with aqueous D-3-hydroxybutyrate solutions (0-28 mM) in PBS at a poise potential of +100 mV versus a printed Ag/AgCl reference electrode. The dose response curves were similar to those in FIG. 4. A current of 8.6 μA was recorded at 24 mM D-3-hydroxybutyrate for these electrodes after 2 weeks storage. This is almost identical to responses obtained from dry strips containing 1,10-PQ.

Compound	Assay Rate before filtration [1] [absorbance units/min]	Assay Rate after filtration [1] [absorbance units/min]	Slope of dose response curve to NADH ([2]; electrodes containing 1,10-PQ, NADH 0-16.7 mM in PBS, +400 mV versus Ag/AgCl) [nA mM^−1 NADH]	Current at 24 mM D-3-hydroxybutyrate ([3]; after 4, 14 and 26 weeks of storage (30° C., desiccated), +400 mV versus Ag/AgCl) [μA]	Residual enzyme activity after filtration (percentage of the original activity) [1] [%]	Slope of dose response curve to NADH ([2]; electrodes containing MB, NADH 0-12.4 mM, +100 mV versus Ag/AgCl) [μA mM^−1 NADH]	Current at 24 mM D-3-hydroxybutyrate ([3]; after 2 weeks storage (30° C., desiccated), +100 mV versus Ag/AgCl) [μA]
O=C1C(=O)c2ncccc2-c2ncccc21 [1,7-PQ, 1,7-Phenanthroline quinone]	0.115	0.150	–	–	–	–	–
O=C1C(=O)c2cccnc2-c2ncccc21 [1,10-PQ, 1,10-Phenanthroline quinone]	0.149	0.160	0.58	8.5	–	–	–
C[n+]1cccc2c1-c1ncccc1C(=O)C2=O.O=S(=O)([O-])C(F)(F)F [1-Me-1,10-PQ^+, 1-Me-1,10-phenanthrolinium quinone trifluoromethane sulphonate]	0.150	0.185	–	–	94	–	–
Cc1ccc2c(n1)-c1nc(C)ccc1C(=O)C2=O [2,9-Me2-1,10-PQ, 2,9-Dimethyl-1,10-phenanthroline quinone]	0.189	–	–	–	–	–	–
COS(=O)(=O)[O-].COc1cccc2c1nc1ccccc1[n+]2C [Compound 1-MeO-PMS, 1-Methoxy phenazine methosulphate]	0.009	0.071	–	–	47	–	–
CC1=CC(=O)C(=O)C=C1 [Compound 4-Me-BQ, 4-Methyl-1,2-benzoquinone]	0.005	0.007	–	–	4	–	–
O=C1C(Cl)=CC(=Nc2ccc(O)cc2)C=C1Cl [DCIP, 2,6-Dichloroindophenol]	0.104	0.085	–	–	57	–	–
C[N+](C)=c1ccc2nc3c(ccc4ccccc43)oc-2c1.[Cl-] [MB, Meldola's Blue]	0.008	0.026	–	–	16	8.48	8.6
[Ru(bpy)2(1,10-PQ)] (PF6)2 [[Ru(bpy)2(1,10-PQ)](PF6)2]	0.114	0.193	–	–	98	–	–
